# Measurements reported in patent EP3974434B1, “MACROLIDE DERIVATIVES, PREPARATION METHOD AND APPLICATION THEREOF” (Zhejiang Hisun Pharmaceutical Co., Ltd., priority 2019, dated 2020).
# Read-outs that look alike come from different tables or passages of the source.
# Key:
# [1] = molecular target: T1, TRKA (Homo sapiens, UniProt P04629); assay: HTRF KinEASE-TK kinase activity inhibition assay, TRKA; assay type: biochemical; conditions: ATP 100 µM
# T1 construct: purchased Carna bioscience 08-186
# T1 sequence (P04629 33-796): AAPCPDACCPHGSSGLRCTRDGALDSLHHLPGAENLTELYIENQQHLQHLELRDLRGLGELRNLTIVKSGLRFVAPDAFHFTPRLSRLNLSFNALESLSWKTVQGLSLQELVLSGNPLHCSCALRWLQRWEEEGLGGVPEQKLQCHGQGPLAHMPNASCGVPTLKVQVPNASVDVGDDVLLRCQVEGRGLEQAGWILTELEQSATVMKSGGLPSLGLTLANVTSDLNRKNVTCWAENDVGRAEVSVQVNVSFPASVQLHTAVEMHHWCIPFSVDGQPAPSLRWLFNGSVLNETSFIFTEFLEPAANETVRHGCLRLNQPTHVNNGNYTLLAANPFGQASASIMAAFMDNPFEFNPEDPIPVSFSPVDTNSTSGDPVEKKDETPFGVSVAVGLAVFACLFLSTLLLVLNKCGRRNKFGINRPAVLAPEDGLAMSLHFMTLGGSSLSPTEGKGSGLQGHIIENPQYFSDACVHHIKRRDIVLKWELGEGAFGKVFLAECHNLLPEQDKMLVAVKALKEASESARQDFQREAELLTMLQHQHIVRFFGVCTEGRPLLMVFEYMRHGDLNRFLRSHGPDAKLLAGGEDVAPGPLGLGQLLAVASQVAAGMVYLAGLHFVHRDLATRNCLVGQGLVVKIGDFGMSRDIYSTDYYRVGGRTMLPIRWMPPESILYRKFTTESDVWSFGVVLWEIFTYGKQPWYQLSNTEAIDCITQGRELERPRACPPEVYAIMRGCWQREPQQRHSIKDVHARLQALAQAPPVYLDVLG
# From the text: (§1) The following method was used to determine the inhibition degrees of the compounds of the present invention on the activity of recombinant human NTRK family kinase in vitro. In this method, HTRF®KinEASE-TK tyrosine kinase kit (article number: 62TK0PEB) of Cisbio company was used, and the principle of the kit was based on time-resolved fluorescence resonance energy transfer (TF-FRET), and the inhibition of the compounds on the activity of the NTRK kinase was reflected by determining a phosphorylation degree of a biotinylated polypeptide substrate mediated by NTRK kinase. For detailed experimental operation, please refer to the kit instruction. Recombinant human wild-type NTRK proteins were purchased from Carna bioscience (the article numbers were TRKA #08-186, TRKB #08-187 and TRKC #08-197 respectively), and recombinant human mutant NTRK proteins were purchased from SignalChem (the article numbers were TRKA G595R #N16-12BG-10, TRKA G667C # N16-12CG-10, and TRKC G623R # N18-12CH-10 respectively).
# (§2) The experimental methods were operated according to the steps in the kit instruction, and were briefly described as follows: a test compound was first dissolved in DMSO to prepare a storage solution, and then diluted in gradient with a buffer provided in the kit. A final concentration of the test compound in the reaction system ranged from 1,000 nM to 0.004 nM. An ATP Km value concentration of each NTRK protein was determined by using an ATP solution diluted in gradient (Sangon Biotech (Shanghai) Co., Ltd., A600311). According to the Km value obtained, the ATP concentrations in the reaction system were set as 100 µM for TRKA, 10 µM for TRKB, 50 µM for TRKC, 7 µM for TRKA(G595R), 1 µM for TRKA(G667C) and 100 µM for TRKC(G623R). The reaction was carried out in a 384-well microplate. Firstly, the compound and a certain amount of corresponding NTRK protein were added to the wells and incubated for 5 minutes to 10 minutes at room temperature. Then, the ATP solution and the biotinylated polypeptide substrate solution were added to the reaction solution and incubated with shaking at room temperature for 60 minutes. Then, an anti-phosphorylated tyrosine antibody coupled with a europium compound and streptavidin coupled with modified allophycocyanin XL665 were added to the reaction, and continuously incubated with shaking at room temperature for 1 hour. After incubation, fluorescence intensity values of each well at an excitation wavelength of 304 nm, and emission wavelengths of 620 nm and 665 nM were determined in a TF-FRET mode on a microplate reader. Compared with the fluorescence intensity ratio of a control group (0.1% DMSO), the percentage inhibition rates of the compound at each concentration were calculated, and the IC50 value of the compound was obtained by performing nonlinear regression analysis for logarithmic value of the compound concentration - inhibition rate by GraphPad Prism 5 software, which can be seen in Table 1. Table 1 IC50 data of the compounds of the present invention on TRK enzyme activity inhibition
# [2] = molecular target: T2, TRKB (Homo sapiens, UniProt Q16620); assay: HTRF KinEASE-TK kinase activity inhibition assay, TRKB; assay type: biochemical; conditions: ATP 10 µM
# T2 construct: purchased Carna bioscience 08-187
# T2 sequence (Q16620 32-822): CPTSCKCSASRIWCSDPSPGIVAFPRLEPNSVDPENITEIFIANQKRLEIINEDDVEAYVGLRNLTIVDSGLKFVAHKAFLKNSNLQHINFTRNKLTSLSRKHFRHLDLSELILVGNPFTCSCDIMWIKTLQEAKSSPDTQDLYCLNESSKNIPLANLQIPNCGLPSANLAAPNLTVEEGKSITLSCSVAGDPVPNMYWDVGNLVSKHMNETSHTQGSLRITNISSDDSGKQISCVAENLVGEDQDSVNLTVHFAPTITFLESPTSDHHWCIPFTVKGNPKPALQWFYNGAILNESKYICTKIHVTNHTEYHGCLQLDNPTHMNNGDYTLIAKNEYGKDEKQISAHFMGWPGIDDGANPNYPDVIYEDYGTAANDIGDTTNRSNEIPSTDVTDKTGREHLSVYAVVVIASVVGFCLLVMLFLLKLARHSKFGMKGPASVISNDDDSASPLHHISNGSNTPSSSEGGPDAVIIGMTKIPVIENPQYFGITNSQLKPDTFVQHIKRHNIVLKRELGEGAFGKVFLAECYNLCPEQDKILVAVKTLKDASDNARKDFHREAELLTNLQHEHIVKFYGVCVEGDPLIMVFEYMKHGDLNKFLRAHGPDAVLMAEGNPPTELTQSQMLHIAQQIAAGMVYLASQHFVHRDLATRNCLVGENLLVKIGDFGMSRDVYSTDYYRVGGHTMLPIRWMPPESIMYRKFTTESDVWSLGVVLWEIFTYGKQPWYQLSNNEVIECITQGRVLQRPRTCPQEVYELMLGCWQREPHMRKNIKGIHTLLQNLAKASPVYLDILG
# From the text: as §1, §2
# [3] = molecular target: T3, TRKC (Homo sapiens, UniProt Q16288); assay: HTRF KinEASE-TK kinase activity inhibition assay, TRKC; assay type: biochemical; conditions: ATP 50 µM
# T3 construct: purchased Carna bioscience 08-197
# T3 sequence (Q16288 32-839): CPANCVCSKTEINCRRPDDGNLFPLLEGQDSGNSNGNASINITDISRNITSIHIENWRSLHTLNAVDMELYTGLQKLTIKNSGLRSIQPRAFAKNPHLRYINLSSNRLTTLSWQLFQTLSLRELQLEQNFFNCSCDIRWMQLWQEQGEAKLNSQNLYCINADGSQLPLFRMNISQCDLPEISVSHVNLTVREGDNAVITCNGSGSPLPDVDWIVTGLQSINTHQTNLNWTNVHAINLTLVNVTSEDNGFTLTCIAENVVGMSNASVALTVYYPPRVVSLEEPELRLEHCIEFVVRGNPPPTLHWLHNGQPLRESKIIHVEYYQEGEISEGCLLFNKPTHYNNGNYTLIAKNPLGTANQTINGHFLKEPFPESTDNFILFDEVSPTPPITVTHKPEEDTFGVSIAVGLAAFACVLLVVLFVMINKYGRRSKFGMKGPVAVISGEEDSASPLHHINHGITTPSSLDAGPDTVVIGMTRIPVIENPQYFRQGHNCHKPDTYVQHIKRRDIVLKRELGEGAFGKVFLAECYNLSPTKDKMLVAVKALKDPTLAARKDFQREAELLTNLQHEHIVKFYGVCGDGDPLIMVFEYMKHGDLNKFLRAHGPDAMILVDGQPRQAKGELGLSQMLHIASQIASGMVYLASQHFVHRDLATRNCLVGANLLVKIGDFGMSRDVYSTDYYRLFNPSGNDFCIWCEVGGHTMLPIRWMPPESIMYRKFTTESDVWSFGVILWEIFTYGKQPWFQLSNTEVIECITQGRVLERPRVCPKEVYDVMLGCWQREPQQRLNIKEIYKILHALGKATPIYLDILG
# From the text: as §1, §2
# [4] = molecular target: T4, TRKA(G595R) (Homo sapiens, UniProt P04629, G595R); assay: HTRF KinEASE-TK kinase activity inhibition assay, TRKA(G595R); assay type: biochemical; conditions: ATP 7 µM
# T4 construct: purchased SignalChem N16-12BG-10
# T4 sequence (P04629 33-796 G595R): as the sequence (P04629 33-796) above, with G563R counted along it
# From the text: as §1, §2
# [5] = molecular target: T5, TRKC(G623R) (Homo sapiens, UniProt Q16288, G623R); assay: HTRF KinEASE-TK kinase activity inhibition assay, TRKC(G623R); assay type: biochemical; conditions: ATP 100 µM
# T5 construct: purchased SignalChem N18-12CH-10
# T5 sequence (Q16288 32-839 G623R): as the sequence (Q16288 32-839) above, with G592R counted along it
# From the text: as §1
# as §2, with “Then, an anti-phosphorylated tyrosine antibody coupled with a europium compound and streptavidin coupled with modified allophycocyanin XL665 were added to the reaction, and continuously incubated with shaking at room temperature for 1 hour.” left out, “Table 1 IC50 data of the compounds of the present invention on TRK enzyme activity inhibition” left out
# [6] = Pharmacokinetic study on ICR mice (plasma, LC-MS/MS); assay type: in vivo; conditions: male, mouse; for bioavailability: 5 mg/kg oral intake vs 1 mg/kg injection, read-out: Bioavailability F(%); for AUC(0-inf): read-out: Area under curve AUC0-∞; for Cmax: read-out: Blood concentration Cmax; for half-life: read-out: Half-life T1/2(h) (converted); for clearance: read-out: Clearance rate
# Protocol: ICR mice, male, 29.0 g to 33.8g, purchased from Beijing Charles River Laboratory Animal Technology Co., Ltd.
# Intravenous injection group: an appropriate amount of drug was weighed, and added with mixed solvent (DMA: 30% Solutol HS-15: Saline = 10: 10: 80 (v/v/v)) to prepare the drug with a final concentration of 0.2 mg/mL.
# Oral gavage administration group: an appropriate amount of drug was weighed, added with an appropriate amount of sodium carboxymethyl cellulose (CMC-Na, containing 0.5% Tween 80), vortex shaked, and ultrasonically prepared into […] suspension.
# For ICR mice, each compound to be tested was divided into an intravenous injection group (9 mice in each group) and an intragastric group (9 mice in each group). The ICR mice were fasted overnight and then administered by orbital intravenous injection (administration dose of 1 mg/kg, and administration volume of 5 mL/kg) and administered by intragastric injection (administration dose of 5 mg/kg, and administration volume of 10 mL/kg), and ate 4 hours after administration.
# About 0.2 mL of blood was collected via jugular vein before administration and 0.083 hour, 0.25 hour, 0.5 hour, 1 hour, 2 hours, 4 hours, 8 hours, 12 hours and 24 hours after administration, and heparin sodium was used for anticoagulation. The collected blood samples were placed on ice, and plasma was separated by centrifugation (centrifugation condition: 1500 g, 10 minutes). The collected plasma was stored at-40°C to -20°C before analysis.
# LC-MS/MS was used to determine the contents of different compounds to be tested in mouse plasma after intravenous injection and intragastric administration.
# The pharmacokinetic parameters of the compounds of the present invention and the positive control can be seen in Table 8. Table 8 Results of pharmacokinetic parameters
# [7] = molecular target: T6, TRKA(G667C) (Homo sapiens, UniProt P04629, G667C); assay: HTRF KinEASE-TK kinase activity inhibition assay, TRKA(G667C); assay type: biochemical; conditions: ATP 1 µM
# T6 construct: purchased SignalChem N16-12CG-10
# T6 sequence (P04629 33-796 G667C): as the sequence (P04629 33-796) above, with G635C counted along it
# From the text: as §1, §2
# [8] = intravenous, 1 mg/kg, injection
compound,measurement,setting,value
"C[C@H]1Nc2ccn3ncc(c3n2)C(=O)NCC2Cc3cc(F)cc1c3O2 (stereo partly drawn) [Example 1, (3R)-6-fluoro-3-methyl-10-oxa-2,13,17,18,21-pent aazapentacyclo[13.5.2.1^8,11.0^4,9.0^18,22]tricosa-1(21), 4,6,8, 15(22),16, 19-heptaen-14-one]",IC50,[1],1.66 nM
same,IC50,[2],0.29 nM
same,IC50,[3],0.5 nM
same,IC50,[4],11.3 nM
"C[C@H]1Nc2ccn3ncc(c3n2)C(=O)NCC[C@H]2Cc3cc(F)cc1c3O2 [Example 3, (3R,11R)-6-fluoro-3-methyl-10-oxa-2,14,18,19,22-pentaazapentacyclo[14.5.2.1^8,11.0^4,9.0^19,23]tetracosa-1(22),4,6,8,16(23),17,20-heptaen-15-one]",IC50,[1],1.7 nM
same,IC50,[2],0.33 nM
same,IC50,[3],0.47 nM
same,IC50,[4],3.31 nM
"C[C@H]1Nc2ccn3ncc(c3n2)C(=O)NCC2(C)Cc3cc(F)cc1c3O2 (stereo partly drawn) [Example 5, (3R)-6-fluoro-3,11-dimethyl-10-oxa-2,13,17,18,21-pentaazapentacyclo[13.5.2.1^8,11.0^4,9.0^18,22]tricosa-1 (21),4,6,8,15(22),16,19-heptaen-14-one]",IC50,[1],0.92 nM
same,IC50,[2],0.76 nM
same,IC50,[3],2.63 nM
same,IC50,[4],4.31 nM
same,IC50,[5],14.5 nM
same,bioavailability,[6],65%
same,AUC(0-inf),"[6]; 5 mg/kg, oral intake",6040 ng·h/mL
same,Cmax,"[6]; 5 mg/kg, oral intake",2600 ng/mL
same,half-life,"[6]; 5 mg/kg, oral intake",2.03 h
same,AUC(0-inf),[6]; [8],1850 ng·h/mL
same,clearance,[6]; [8],9 mL/min/kg
same,half-life,[6]; [8],1.79 h
"C[C@H]1Nc2ccn3ncc(c3n2)C(=O)NCCC2=Cc3cc(F)cc1c3O2 [Example 6, (3R)-6-fluoro-3-methyl-10-oxa-2,14,18,19,22-pent aazapentacyclo[14.5.2.1^8,11.0^4,9.0^19,23]tetracosa-1(2 2),4,6,8,11(24),16(23),17,20-octaen-15-one]",IC50,[1],1.05 nM
same,IC50,[2],0.34 nM
same,IC50,[4],11.3 nM
"C[C@H]1Nc2ccn3ncc(c3n2)C(=O)NC[C@@H]2COc3cc(F)cc1c3O2 [Example 7, (2R,14R)-19-fluoro-2-methyl-16,22-dioxa-3,5,7,8, 12-pentaazapentacyclo[12.6.2.2^4,7.0^6,10.0^17,21]tetrac osa-1(20),4,6(10),8,17(21),18,23-heptaen-11-one]",IC50,[1],2.05 nM
same,IC50,[2],0.32 nM
same,IC50,[4],2.65 nM
same,IC50,[7],21.1 nM
same,IC50,[5],25.3 nM
"C[C@H]1Nc2ccn3ncc(c3n2)C(=O)NC[C@]2(C)Cc3cc(F)c(F)c1c3O2 [Example 11, (3R,11S)-5,6-difluoro-3,11-dimethyl-10-oxa-2,13,1 7,18,21-pentaazapentacyclo[13.5.2.1^8,11.0^4,9.0^18,22]t ricosa-1(21),4,6,8,15(22),16,19-heptaen-14-one]",IC50,[1],4.5 nM
same,IC50,[3],0.63 nM
"COC[C@@]12CNC(=O)c3cnn4ccc(nc34)N[C@H](C)c3cc(F)cc(c3O1)C2 [Example 15, (3R,11R)-6-fluoro-11-(methoxymethyl)-3-methyl-10-oxa-2,13,17,18,21-pentaazapentacyclo[13.5.2.1 ^8,11.0^4,9.0^18,22]tricosa-1(21),4,6,8,15(22),16,19-hept aen-14-one]",IC50,[1],2.8 nM
same,IC50,[3],0.37 nM
"C[C@H]1Nc2ccn3ncc(c3n2)C(=O)NCC2(CF)Cc3cc(F)cc1c3O2 (stereo partly drawn) [Example 18, (3R)-6-fluoro-11-(fluoromethyl)-3-methyl-10-oxa-2,13,17,18,21-pentaazapentacyclo[13.5.2.1^8,11.0^4,9. 0^18,22]tricosa-1(21),4,6,8,15(22),16,19-heptaen-14-one]",IC50,[1],0.63 nM
same,IC50,[2],0.17 nM
same,IC50,[3],1.37 nM
same,IC50,[4],3.9 nM
same,IC50,[7],6.11 nM
"C[C@H]1Nc2ccn3ncc(c3n2)C(=O)NCC2(CO)Cc3cc(F)cc1c3O2 (stereo partly drawn) [Example 19, (3R)-6-fluoro-11-(hydroxymethyl)-3-methyl-10-ox a-2,13,17,18,21-pentaazapentacyclo[13.5.2.1^8,11.0^4, 9.0^18,22]tricosa-1(21),4,6,8,15(22),16,19-heptaen-14-one]",IC50,[1],3.4 nM
same,IC50,[2],0.25 nM
same,IC50,[3],1.16 nM
same,IC50,[4],19.3 nM
"C[C@H]1Nc2ccn3ncc(c3n2)C(=O)NCC[C@@]2(C)Cc3cc(F)cc1c3O2 [Example 20, (3R,11R)-6-fluoro-3,11-dimethyl-10-oxa-2,14,18,1 9,22-pentaazapentacyclo[14.5.2.1^8,11.0^4,9.0^19,23]tetra cosa-1(22),4,6,8,16(23),17,20-heptaen-15-one]",IC50,[1],5.9 nM
same,IC50,[7],4.2 nM
"C[C@H]1Nc2ccn3ncc(c3n2)C(=O)NCC[C@]2(C)Cc3cc(F)cc1c3O2 [Example 21, (3R,11S)-6-fluoro-3,11-dimethyl-10-oxa-2,14,18,1 9,22-pentaazapentacyclo[14.5.2.1^8,11.0^4,9.0^19,23]tetra cosa-1(22),4,6,8,16(23),17,20-heptaen-15-one]",IC50,[1],18.5 nM
same,IC50,[7],24.6 nM
"C[C@H]1Nc2ccn3ncc(c3n2)C(=O)NC[C@]2(C)COc3cc(F)cc1c3O2 [Example 23, (2R,14R)-19-fluoro-2,14-dimethyl-16,22-dioxa-3,5 ,7,8,12-pentaazapentacyclo[12.6.2.2^4,7.0^6,10.0^17,21]te tracosa-1(20),4,6(10),8,17(21),18,23-heptaen-11-one]",IC50,[1],4.83 nM
same,IC50,[4],15.3 nM
"C[C@H]1Nc2ccc3ncc(n3n2)C(=O)NC[C@@]2(C)Cc3cc(F)cc1c3O2 [Example 26, (3R,11R)-6-fluoro-3,11-dimethyl-10-oxa-2,13,17,21,22-pentaazapentacyclo[13.5.2.1^8,11.0^4,9.0^18 ,22]tricosa-1(21),4,6,8,15,17,19-heptaen-14-one]",IC50,[1],0.97 nM
same,IC50,[2],1.3 nM
same,IC50,[3],0.8 nM
same,IC50,[4],8.6 nM
same,IC50,[7],15.5 nM
"C[C@H]1CNC(=O)c2cnn3ccc(nc23)N[C@H](C)c2cc(F)ccc2O1 [repotrectinib, reference compound]",bioavailability,[6],13%
same,AUC(0-inf),"[6]; 5 mg/kg, oral intake",530 ng·h/mL
same,Cmax,"[6]; 5 mg/kg, oral intake",154 ng/mL
same,half-life,"[6]; 5 mg/kg, oral intake",2.93 h
same,AUC(0-inf),[6]; [8],824 ng·h/mL
same,clearance,[6]; [8],20.2 mL/min/kg
same,half-life,[6]; [8],3.9 h
